The results in this text go back to ChEMBL document CHEMBL1143186, “Total synthesis and evaluation of [18F]MHMZ” (Bioorg Med Chem Lett, 2008).

Data set [1] in a line: Metabolic stability in rat plasma assessed as unmetabolized fraction after 5 mins. The class given is ADME, cell-free. As to conditions: read-out: Stability.
The nature of data set [2]: Metabolic stability in rat plasma assessed as unmetabolized fraction after 30 mins. The data set is classed as ADME, cell-free. As to conditions: read-out: Stability.
The subject of a further data set is Caudate-putamen. In words: Drug level in rat brain caudate-putamen. To be noted: in vivo. The data set is classed as ADME, tissue-based.
Data set [3] relates to Nucleic Acid. In words: Ratio of drug level in caudate-putamen to cerebellum in rat. The data set is classed as ADME, tissue-based. As to conditions: in vitro.
Another data set concerns Laminae. The data set can be described thus: Drug level in rat brain laminae 6a + 6b region. The data set is classed as ADME, tissue-based. To be noted: in vivo.
In data set [4] the test system is Nucleic Acid. In words: Ratio of drug level in laminae 1-4 region to cerebellum in rat. The data set is classed as ADME, tissue-based. As to conditions: in vivo.
In data set [5] the test system is Brain. The data set can be described thus: Drug level in rat brain lamina 5 region. The data set is classed as ADME, tissue-based. To be noted: in vivo.
The subject of data set [6] is Nucleic Acid. In words: Ratio of drug level in lamina 5 region to cerebellum in rat. To be noted: in vivo. The class given is ADME, tissue-based.
Data set [7] has as its system Nucleic Acid. In words: Ratio of drug level in laminae 6a + 6b region to cerebellum in rat. The class given is ADME, tissue-based. To be noted: in vitro.
A short description of data set [8]: Metabolic stability in rat plasma assessed as unmetabolized fraction after 10 mins. The class given is ADME, cell-free. To be noted: read-out: Stability.
Data set [9] can be described thus: Metabolic stability in rat plasma assessed as unmetabolized fraction after 60 mins. The class given is ADME, cell-free. To be noted: read-out: Stability.
The subject of data set [10] is Brain. In words: Drug level in rat brain laminae 1-4 region. The class given is ADME, tissue-based. To be noted: in vivo.
The target of data set [11] is 5-hydroxytryptamine receptor 2A (Rattus norvegicus, UniProt P14842). The data set can be described thus: Displacement of [3H]MDL from rat 5HT2A receptor expressed in GF62 cells. The class given is cell-based. Background: Displacement assays read how much labelled ligand stays bound in the presence of the test substance.
Data set [12] concerns the target 5-hydroxytryptamine receptor 2A (Homo sapiens, UniProt P28223). The data set can be described thus: Binding affinity to 5HT2A receptor.

5-hydroxytryptamine receptor 2A (Rattus norvegicus, UniProt P14842), sequence (P14842 whole entry): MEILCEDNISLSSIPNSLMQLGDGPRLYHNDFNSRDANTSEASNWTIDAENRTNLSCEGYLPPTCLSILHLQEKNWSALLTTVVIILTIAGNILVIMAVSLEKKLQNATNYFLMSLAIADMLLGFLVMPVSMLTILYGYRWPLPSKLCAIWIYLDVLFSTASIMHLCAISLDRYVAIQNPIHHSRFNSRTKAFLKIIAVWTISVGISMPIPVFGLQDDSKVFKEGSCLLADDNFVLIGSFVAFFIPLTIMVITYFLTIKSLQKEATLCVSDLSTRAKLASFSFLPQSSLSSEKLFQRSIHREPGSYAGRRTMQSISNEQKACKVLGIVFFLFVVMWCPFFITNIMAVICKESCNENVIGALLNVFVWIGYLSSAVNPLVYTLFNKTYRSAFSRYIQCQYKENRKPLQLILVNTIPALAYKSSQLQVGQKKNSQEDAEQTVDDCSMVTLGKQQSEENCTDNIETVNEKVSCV
5-hydroxytryptamine receptor 2A (Homo sapiens, UniProt P28223), sequence (P28223 whole entry): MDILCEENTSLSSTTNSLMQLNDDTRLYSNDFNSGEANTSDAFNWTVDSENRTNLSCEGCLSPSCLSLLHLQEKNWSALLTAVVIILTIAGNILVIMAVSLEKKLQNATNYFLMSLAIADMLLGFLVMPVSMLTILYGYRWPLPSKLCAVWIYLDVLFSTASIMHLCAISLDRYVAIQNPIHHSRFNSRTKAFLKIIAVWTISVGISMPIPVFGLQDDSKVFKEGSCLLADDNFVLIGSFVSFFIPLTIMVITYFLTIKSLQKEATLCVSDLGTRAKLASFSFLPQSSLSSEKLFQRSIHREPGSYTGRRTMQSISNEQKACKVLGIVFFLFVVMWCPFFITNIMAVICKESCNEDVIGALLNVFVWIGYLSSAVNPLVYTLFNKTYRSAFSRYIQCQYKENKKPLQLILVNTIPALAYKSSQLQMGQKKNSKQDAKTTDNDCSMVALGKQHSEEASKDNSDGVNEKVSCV

On to `COc1c(OCC[18F])cccc1C(O)C1CCN(CCc2ccc(F)cc2)CC1` (stereo not given), for which the remaining at 5 min in [1] is 43%. For the same compound, the remaining at 0.5 h in data set [2] turned out to be 16%. For the same compound, the Drug uptake stood at 16.8 pmol/mm3 in the data set on Caudate-putamen, 27.27 pmol/mm3 in the data set on Laminae, 51.6 pmol/mm3 with Brain [5] and 23.3 pmol/mm3 in the data set with Brain [10]. Further, the Ratio in the data set with Nucleic Acid [3] turned out to be 19.2; in the data set on Nucleic Acid [4], 26.9; with Nucleic Acid [6], 59.5; with Nucleic Acid [7] it was 31.4. Also, in [8], the remaining at 10 min amounted to 32%. Also, the remaining at 1 h in data set [9] was 7%.
In general, Ki refers to the equilibrium dissociation constant of an inhibitor or competing ligand from its target. `O=C(c1ccc(F)cc1)C1CCN(CCn2c(=S)[nH]c3ccccc3c2=O)CC1` [ALTANSERIN]: the values for the Ki in data set [11] and in data set [12] were 0.74 nM and 0.13 nM, respectively.
The compound `COc1c(OCCF)cccc1C(O)C1CCN(CCc2ccc(F)cc2)CC1` (stereo not given) gave an inhibition constant Ki in [11] of 9 nM.
